Measurements published in PMC8297402, “Trifluoromethyl-substituted 3,5-bis(arylidene)-4-piperidones as potential anti-hepatoma and anti-inflammation agents by inhibiting NF-кB activation” (Journal of Enzyme Inhibition and Medicinal Chemistry, 2021).
Several values for one entry are separate records, joined by “and”; a condition that tells them apart may be missing. Equal entries are not always repeated. Where two headings read alike, the source gives them in different places.

What was measured:
[1] = test system: HepG2; test: Modified MTT cytotoxicity assay, HepG2; format: cell-based, Human; conditions: for SI value, average: average of SI for HepG2 and SMMC-7721; for SI (selectivity index) HepG2: quotient of IC50 for normal (LO2) and malignant (HepG2) cells
Description: (§1) The HepG2, SMMC-7721, and LO2 cell lines were maintained at 37 °C, 5% humidified CO2, and 95% atmosphere. Dulbecco's Modified Eagle (DMEM) medium containing 10% foetal bovine serum (FBS) was used for culturing the HepG2 cell line; meanwhile, Roswell Park Memorial Institute (RPMI) 1640 medium containing 10% FBS was used for culturing other cell lines (SMMC-7721, LO2). The HepG2, SMMC-7721 and LO2 cells were seeded in a 96-well plate in 200 μL of medium per well at a density of approximately 8 × 10^3 cells/well and cultured for 24 h, followed by incubation in an incubator of indicated compounds with successive concentrations (10, 5, 2.5, 1.25, 0.625, 0.3125 μg/mL) for 24 h. In the control group, cells were only cultured with culture media. After the media were removed, 20 μL of MTT (5 mg/mL) was added, then cells were incubated for 4 h at 37 °C. […] GraphPad Prism 5 software was used to calculate their IC50 values. Every IC50 value was the average of three replicates. Doxorubicin (DOX) and curcumin were used as positive controls.

[2] = test system: SMMC-7721; test: Modified MTT cytotoxicity assay, SMMC-7721; format: cell-based, Human; conditions: for IC50: MTT, 24 h incubation, three replicates; for SI (selectivity index) SMMC-7721: quotient of IC50 for normal (LO2) and malignant (SMMC-7721) cells
Description: as §1

[3] = test system: LO2; test: Modified MTT cytotoxicity assay, normal heptical cell line LO2; format: cell-based, human; conditions: 24 h incubation
Description: as §1

[4] = test system: RAW264.7 cell; test: MTT toxicity pre-experiment on RAW264.7 macrophagocyte; format: cell-based, mouse; conditions: for Survival rate RAW264.7 cell: BAPs 5 μM; for viability at 5 µM: Mus musculus, RAW264.7, BAPs 5 μM, read-out: Survival rate RAW264.7 cell
Description: Lipopolysaccharide (LPS) is a key constituent of Gram-negative bacterial endotoxin, which is used to induce an inflammatory response in corresponding inflammatory cells. TNF-α and IL-6 are two kinds of representative pro-inflammatory factors, which produced by LPS-stimulated RAW264.7 macrophage. In our pre-experiments, the toxicity against RAW264.7 macrophagocyte for all title compounds was tested by the MTT assay, and the results were listed in Table 2. The survival rates were above 80% for all BAPs (4-30) at the concentration of 5.0 μM.

[5] = test system: TNF-α; test: ELISA of TNF-α release in LPS-stimulated RAW264.7 cells; format: cell-based, mouse; conditions: for Inhibition rates against IL-6 and TNF-α cytokine release, average: average of TNF-α and IL-6, 5 μM + LPS, RAW264.7; for Inhibition rate TNF-α: BAPs (5 μM) + LPS (1 μg/mL); for Inhibition rate TNF-α / inhibition at 5 µM: RAW264.7, ELISA; for inhibition at 5 µM: Mus musculus, RAW264.7, BAPs (5 μM) + LPS (1 μg/mL), read-out: Inhibition rate TNF-α
Description: (§2) We tested by inhibiting the secretion of TNF-α and IL-6 to better evaluated the anti-inflammatory effects of BAPs. […] Under the stimulation of LPS (1.0 μg/mL) with RAW264.7 cells, the release of TNF-α and IL-6 was detected. Besides, after treated with BAPs (5.0 μM) and LPS (1.0 μg/mL), the release of TNF-α and IL-6 was measured with an ELISA kit (eBioScience, San Diego, California), respectively. In general terms, pyrrolidine dithiocarbamate (PDTC, 30 μM) or BAP (5.0 μM) was used to pretreat cells for 2 h, respectively. Then, LPS (1.0 μg/mL) was added and cells were incubated for another 22 h. Finally, the culture media were centrifuged at 1000 rpm for 10 min, and the expression levels of TNF-α and IL-6 were determined by ELISA.

[6] = test system: A549; test: Modified MTT cytotoxicity assay, A549; conditions: for SI (selectivity index) A549: quotient of IC50 for normal (HHL-5) and malignant (A549) cells
Description: To further verify the anti-tumour activity, one human non-small cell lung cancer cell line (A549), one human ovarian cancer cell line (A2780), and one human normal heptical cell line (HHL-5) were screened by BAPs (4–30) using a modified MTT assay (Supporting Information). DOX and curcumin were selected as positive controls.
The optical density (OD) value of each well was measured on a
multi-well plate reader (TECAN, Mӓnnedorf, Switzerland ) at 570 nm.
Every IC 50 value was the average of three replicates.
Doxorubicin (DOX) and Curcumin were used as positive controls.

[7] = test system: A2780; test: Modified MTT cytotoxicity assay, A2780; conditions: for SI (selectivity index) A2780: quotient of IC50 for normal (HHL-5) and malignant (A2780) cells
[8] = test system: HHL-5; test: Modified MTT cytotoxicity assay, normal heptical cell line HHL-5; conditions: read-out: Cytotoxicity IC50 HHL-5; MTT, normal heptical cell line
[9] = test system: IL-6; test: ELISA of IL-6 release in LPS-stimulated RAW264.7 cells; format: cell-based, mouse; conditions: RAW264.7, ELISA; for Inhibition rate IL-6: BAPs (5 μM) + LPS (1 μg/mL); for inhibition at 5 µM: Mus musculus, RAW264.7, BAPs (5 μM) + LPS (1 μg/mL), read-out: Inhibition rate IL-6
Description: as §2

[10] = Modified MTT cytotoxicity assay, normal heptical cell line LO2; format: cell-based, human; conditions: human, LO2 cells (normal hepatic cell line), 24 h incubation
Description: as §1

[11] = Modified MTT cytotoxicity assay, normal heptical cell line HHL-5; conditions: human, HHL-5 cells (normal hepatic cell line)
[12] = MTT, 24 h incubation, three replicates, read-out: Cytotoxicity IC50 HepG2
[13] = average of HepG2 and SMMC-7721, read-out: Cytotoxicity against HCC cells, average
[14] = read-out: Cytotoxicity IC50 A549, MTT, non-small cell lung cancer cell line
[15] = read-out: Cytotoxicity IC50 A2780, MTT, ovarian cancer cell line
[16] = Homo sapiens, HepG2, 24 h, MTT, 24 h incubation, three replicates, read-out: Cytotoxicity IC50 HepG2
[17] = Homo sapiens, A549, read-out: Cytotoxicity IC50 A549, MTT, non-small cell lung cancer cell line
[18] = Homo sapiens, A2780, read-out: Cytotoxicity IC50 A2780, MTT, ovarian cancer cell line

Compound | IC50 [1, 12] [µM] | SI (selectivity index) HepG2 [1] | IC50 [2] [µM] | SI (selectivity index) SMMC-7721 [2] | IC50 [3] [µM] | Survival rate RAW264.7 cell [4] | SI (selectivity index) A549 [6] | IC50 [6, 14] [µM] | SI (selectivity index) A2780 [7] | IC50 [7, 15] [µM] | IC50 [8] [µM] | Inhibition rate TNF-α [5] [%] | Inhibition rate IL-6 [9] [%] | other results
O=C1/C(=C/c2ccc(C(F)(F)F)cc2)CN(S(=O)(=O)c2ccc(C(F)(F)F)cc2)C/C1=C\c1ccc(C(F)(F)F)cc1 [BAP 25] | 0.9 ± 0.2 | 20.3 | 1.3 ± 0.3 | 14.1 | 18.3 ± 0.6 | 87.3% and 87.3 ± 4.2% | 41.1 | 0.27 ± 0.03 | 39.6 | 0.28 ± 0.03 | 11.1 ± 0.2 | – | – | IC50 [1, 13]: 1.1 µM; SI value, average [1]: 17.2; Inhibition rates against IL-6 and TNF-α cytokine release, average [5]: 78.6%
O=C1/C(=C/c2ccc(C(F)(F)F)cc2)CN(S(=O)(=O)c2ccc([N+](=O)[O-])cc2)C/C1=C\c1ccc(C(F)(F)F)cc1 [BAP 24] | 1.2 ± 0.3 | 12.0 | 3.2 ± 0.3 | 4.5 | 14.4 ± 0.1 | 89.0 ± 1.6% | 44.1 | 0.17 ± 0.01 | 44.1 | 0.17 ± 0.02 | 7.5 ± 0.6 | 65.0 ± 1.8 | 57.3 ± 2.1 | –
O=C1/C(=C/c2cccc(C(F)(F)F)c2)CN(S(=O)(=O)c2ccccc2)C/C1=C\c1cccc(C(F)(F)F)c1 [BAP 13] | – | 3.1 | – | 1.8 | – | – | 11.6 | – | 18.1 | – | – | – | – | IC50 [1, 16]: 3.5 ± 0.1 µM; IC50 ([2]; Homo sapiens, SMMC-7721, 24 h): 5.7 ± 0.1 µM; IC50 at 24 h [10]: 10.1 ± 0.4 µM; viability at 5 µM [4]: 82.5 ± 1.3%; inhibition at 5 µM [5]: 56.3 ± 2.1%; inhibition at 5 µM [9]: 48.9 ± 2.9%; melting point: 151 to 153 °C; IC50 [6, 17]: 0.25 ± 0.01 µM; IC50 [7, 18]: 0.16 ± 0.01 µM; IC50 [11]: 2.9 ± 0.2 µM
Cc1ccc(S(=O)(=O)N2C/C(=C\c3ccc(C(F)(F)F)cc3)C(=O)/C(=C/c3ccc(C(F)(F)F)cc3)C2)cc1 [BAP 23] | ~1 | 13.1 | ~0.8 | 16.4 | 13.1 ± 0.3 | 89.2 ± 3.0% | 23.3 | 0.15 ± 0.02 | 21.9 | 0.16 ± 0.02 | 3.5 ± 0.2 | 78.1 ± 3.2 | 69.2 ± 6.3 | IC50 ([1]; MTT, 24 h incubation, three replicates, listed as 23, read-out: Cytotoxicity IC50 HepG2): 1 ± 0.3 µM; IC50 ([2]; listed as 23): 0.8 ± 0.2 µM
CC(=O)Nc1ccc(S(=O)(=O)N2C/C(=C\c3cccc(C(F)(F)F)c3)C(=O)/C(=C/c3cccc(C(F)(F)F)c3)C2)cc1 [BAP 21] | 1.3 ± 0.1 | 11.1 | 5.1 ± 0.1 | 2.8 | 14.4 ± 0.1 | 90.2 ± 3.6% | 14.3 | 0.21 ± 0.01 | 17.6 | 0.17 ± 0.01 | 3 ± 0.6 | 78.5 ± 4.2 | 71.6 ± 5.3 | –
CC(=O)Nc1ccc(S(=O)(=O)N2C/C(=C\c3ccccc3C(F)(F)F)C(=O)/C(=C/c3ccccc3C(F)(F)F)C2)cc1 [BAP 12] | 12.9 ± 0.1 | 1.2 | 10.9 ± 0.4 | 1.4 | 15.6 ± 1.3 | 86.4 ± 0.7% | 3.3 | 2.39 ± 0.09 | 6.5 | 1.22 ± 0.06 | 7.9 ± 0.2 | 67.2 ± 2.4 | 62.8 ± 3.0 | –
N#Cc1ccc(S(=O)(=O)N2C/C(=C\c3ccc(C(F)(F)F)cc3)C(=O)/C(=C/c3ccc(C(F)(F)F)cc3)C2)cc1 [BAP 29] | 1.7 ± 0.1 | – | 1.3 ± 0.3 | 16.5 | 21.5 ± 1.5 | 83.4% and 83.4 ± 3.3% | 203.7 | ~0.081 | 91.7 | ~0.18 | 16.5 ± 0.3 | – | – | IC50 [1, 13]: 1.5 µM; SI value, average [1]: 14; Inhibition rates against IL-6 and TNF-α cytokine release, average [5]: 73.4%; SI (selectivity), bound stated for A549 and A2780 together ([6]; A549 and A2780 vs HHL-5): > 90; IC50 ([6]; read-out: Cytotoxicity IC50 A549, MTT, non-small cell lung cancer cell line, listed as 29): 0.081 ± 0.004 µM; IC50 ([7]; read-out: Cytotoxicity IC50 A2780, MTT, ovarian cancer cell line, listed as 29): 0.18 ± 0.01 µM
O=C1/C(=C/c2ccccc2C(F)(F)F)CN(S(=O)(=O)c2ccc(C(F)(F)F)cc2)C/C1=C\c1ccccc1C(F)(F)F [BAP 7] | ~2.1 | 8.2 | ~2.6 | 6.6 | 17.2 ± 0.2 | 87.3 ± 1.9% | 3.4 | 2.68 ± 0.53 | 27.6 | 0.33 ± 0.03 | 9.1 ± 0.2 | – | – | IC50 ([1]; MTT, 24 h incubation, three replicates, listed as 7, read-out: Cytotoxicity IC50 HepG2): 2.1 ± 0.1 µM; IC50 ([2]; listed as 7): 2.6 ± 0.2 µM; Inhibition rate TNF-α ([5]; 5 µM): ca. 69.9%; Inhibition rate TNF-α ([5]; listed as 7, 5 µM): 69.9 ± 1.1%; Inhibition rate IL-6 ([9]; 5 µM): ca. 71.2%; Inhibition rate IL-6 ([9]; listed as 7, 5 µM): 71.2 ± 1.3%
O=C1/C(=C/c2ccccc2C(F)(F)F)CN(S(=O)(=O)c2ccc([N+](=O)[O-])cc2)C/C1=C\c1ccccc1C(F)(F)F [BAP 6] | – | 3.7 | – | 1.5 | – | – | 1.0 | – | 0.3 | – | – | – | – | IC50 [1, 16]: 4.3 ± 0.2 µM; IC50 ([2]; Homo sapiens, SMMC-7721, 24 h): 10.4 ± 0.2 µM; IC50 at 24 h [10]: 15.7 ± 1.3 µM; viability at 5 µM [4]: 85.7 ± 3.1%; inhibition at 5 µM [5]: 61 ± 2.7%; inhibition at 5 µM [9]: 68.2 ± 3%; melting point: 204 to 206 °C; IC50 [6, 17]: 7.58 ± 1.76 µM; IC50 [7, 18]: 28.8 ± 5.33 µM
CC(=O)Nc1ccc(S(=O)(=O)N2C/C(=C\c3ccc(C(F)(F)F)cc3)C(=O)/C(=C/c3ccc(C(F)(F)F)cc3)C2)cc1 [BAP 30] | 1.8 ± 0.2 | 7.9 | 3.1 ± 0.2 | 4.6 | 14.2 ± 1.1 | 92.0 ± 1.3% | 21.4 | 0.098 ± 0.01 | 16.2 | 0.13 ± 0.02 | 2.1 ± 0.1 | 68.3 ± 3.1 | 70.1 ± 1.2 | –
